Source: patent publication US6083917A, “Methods and compositions for the identification, characterization and inhibition of farnesyltransferase” (Board of Regents, The University of Texas System, priority 1992, dated 2000)
Like-named read-outs stand apart in the source and are kept apart here. Residues, ends and D or L forms follow the SMILES beside them. No end group written: not given here. *: point of attachment. Octanoyl = CCCCCCCC(=O)*

Columns and labels:
[1] = molecular target: T1, rat brain farnesyltransferase (Rattus norvegicus, UniProt Q02293+Q04631); test: Farnesyltransferase assay: transfer of [3H]farnesyl from [3H]FPP to p21H-ras (TCA filter assay), competition by peptides; assay type: biochemical; parameters: Brains from 50 male Sprague-Dawley rats (100-150 g) were homogenized; from tissue; host or cells: rat brain (male Sprague-Dawley rats)
Description: Farnesyltransferase activity was determined by measuring the amount of ^3 H-farnesol transferred from all-trans ^3 H]farnesyl pyrophosphate ([^3 H]FPP) to p21^H-ras protein. The standard reaction mixture contained the following concentrations of components in a final volume of 25 μl: 50 mM Tris-chloride (pH 7.5), 50 μM ZnCl2, 20 mM KCl, 1 mM DTT, and 40 μM p21^H-ras. The mixture also contained 10 pmoles of [^3 H]FPP (~30,000 dpm/pmol) and 1.8-3.5 μg of partially purified farnesyltransferase (see below). After incubation for 1 hour at 37° C. in 12×75-mm borosilicate tubes, the reaction was stopped by addition of 0.5 ml of 4% SDS and then 0.5 ml of 30% trichloroacetic acid (TCA).
The tubes were vortexed and left on ice for 45-60 min, after which 2 ml of a 6% TCA/2% SDS solution were added. The mixture was filtered on a 2.5-cm glass fiber filter with a Hoefer filtration unit (FH 225). The tubes were rinsed twice with 2 ml of the same solution, and each filter was washed five times with 2 ml of 6% TCA, dried, and counted in a scintillation counter. One unit of activity is defined as the amount of enzyme that transfers 1 pmol of [^3 H]farnesol from [^3 H]FPP into acid-precipitable p21^H-ras per hour under the standard conditions.
The standard assay involved measuring the amount of [^3 H]farnesyl transferred from all-trans [^3 H]FPP to recombinant human p21^H-ras as described in Example I. Each reaction mixture contained the following concentrations of components in a final volume of 25 μl: 50 mM Tris-chloride (pH 7.5), 50 μM ZnCl2, 30 mM KCl, 1 mM DTT, 30 or 40 μM p21^H-ras, 15 pmol [^3 H]FPP (12-23,000 dpm/pmol), 4 to 7.5 μg of partially purified farnesyltransferase (Mono Q fraction, see Example I), and the indicated concentration of competitor peptide added in 3 μl of 10 mM DTT. […] This blank value was subtracted before calculating "% of control" values.
The amount of [^3 H]farnesyl transferred from all-trans-[^3 H]farnesyl pyrophosphate to recombinant p21^H-ras was measured in a filter assay as previously described (62).

[2] = molecular target: T1, rat brain farnesyltransferase; test: Binding of prenyl pyrophosphates to protein farnesyltransferase (gel filtration); parameters: Protein farnesyltransferase was purified to apparent homogeneity from rat brain homogenates; from tissue; host or cells: rat brain; settings: purified enzyme
From the text: Transfer of the enzyme-bound farnesyl group to the bound p21^H-ras required Mg^2+. […] It also was not transferred to a modified p21^H-ras containing COOH-terminal leucine, a protein that was shown previously to be a good substrate for a rat brain geranylgeranyltransferase (35). The inventors conclude that the protein farnesyltransferase is a metalloenzyme that most likely contains Zn^2+ at the peptide-binding site. It thus resembles certain metallopeptidases, including carboxy-peptidase A and the angiotensin-converting enzyme. Strategies previously developed to screen for inhibitors of those enzymes will likely aid in the search for inhibitors of the protein farnesyltransferase.

[3] = molecular target: T1, rat brain farnesyltransferase; test: Farnesyltransferase assay: transfer of [3H]farnesyl from [3H]FPP to p21H-ras (TCA filter assay), competition by peptides; assay type: biochemical; parameters: Brains from 50 male Sprague-Dawley rats (100-150 g) were homogenized; from tissue; host or cells: rat brain (male Sprague-Dawley rats); settings: Concentration giving 50% inhibition of farnesylation of p21H-ras, FIG. 23A; Mono Q fraction, 0.5 μM [3H]farnesyl pyrophosphate, 30 min at 37° C.
[4] = Concentration giving 50% inhibition of farnesyltransferase (text, FIG. 14 / Table II), Example II, partially purified rat brain enzyme, p21H-ras acceptor
[5] = Table II, partially purified rat farnesyltransferase, p21H-ras acceptor, seven concentrations 0.03 to 100 μM, read-out: Concentration for 50% Inhibition
[6] = Table III, six concentrations 0.03 to 10 μM, read-out: Concentration for 50% Inhibition of Farnesylation of p21H-ras

T1 sequence (Q02293 whole entry, one chain of several): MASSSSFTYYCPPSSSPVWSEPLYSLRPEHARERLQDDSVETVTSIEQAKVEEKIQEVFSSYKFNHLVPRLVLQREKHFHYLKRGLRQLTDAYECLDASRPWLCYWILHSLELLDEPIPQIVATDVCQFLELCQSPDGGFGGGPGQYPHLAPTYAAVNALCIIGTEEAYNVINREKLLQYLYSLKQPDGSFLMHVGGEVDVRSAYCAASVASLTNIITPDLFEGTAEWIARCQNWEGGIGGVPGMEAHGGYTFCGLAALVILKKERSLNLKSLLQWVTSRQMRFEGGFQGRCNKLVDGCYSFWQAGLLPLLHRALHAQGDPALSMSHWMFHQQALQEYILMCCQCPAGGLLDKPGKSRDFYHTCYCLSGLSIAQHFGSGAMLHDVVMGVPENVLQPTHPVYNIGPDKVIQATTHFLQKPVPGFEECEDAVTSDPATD

Question: For `CC[C@H](C)[C@H](NC(=O)[C@H](C)NC(=O)[C@@H](N)CS)C(=O)N[C@@H](CCSC)C(=O)O` [CAIM] (H-CAIM-OH), which IC50 [1, 4] is on record?
Answer: 150 nM

Question: What about the IC50 [1, 5] of the same compound?
Answer: 150 nM

Question: With `CSCC[C@H](NC(=O)[C@H](Cc1ccccc1)NC(=O)[C@@H](NC(=O)[C@H](CS)NC(=O)[C@@H](N)CS)C(C)C)C(=O)O` [CCVFM] (H-CCVFM-OH) as the compound, how does the IC50 [1, 6] read?
Answer: 440 nM

Question: With `CC[C@H](C)[C@H](NC(=O)[C@@H](NC(=O)[C@@H](N)CS)[C@@H](C)CC)C(=O)N[C@@H](CCSC)C(=O)O` [CIIM] (H-CIIM-OH) as the compound, how does the IC50 [1, 5] read?
Answer: 150 nM

Question: `CC[C@H](C)[C@H](NC(=O)[C@H](CO)NC(=O)[C@@H](N)CS)C(=O)N[C@@H](CCSC)C(=O)O` [CSIM] (H-CSIM-OH) was tested. Which IC50 [1, 5] did it give?
Answer: 200 nM

Question: `CC[C@H](C)[C@H](NC(=O)[C@@H](NC(=O)[C@@H](N)CS)C(C)C)C(=O)N[C@@H](CCSC)C(=O)O` [CVIM] (H-CVIM-OH) was tested. Which IC50 [1, 4] did it give?
Answer: 150 nM

Question: What about the IC50 [1, 5] of the same compound?
Answer: 150 nM

Question: And the IC50 [1, 6]?
Answer: 150 nM

Question: With `CSCC[C@H](NC(=O)[C@@H](NC(=O)[C@@H](NC(=O)[C@@H](N)CS)C(C)C)C(C)C)C(=O)O` [CVVM] (H-CVVM-OH) as the compound, how does the IC50 [1, 5] read?
Answer: 150 nM

Question: With `CSCC[C@H](NC(=O)[C@H](Cc1c[nH]c2ccccc12)NC(=O)[C@@H](NC(=O)[C@@H](N)CS)C(C)C)C(=O)O` [CVWM] (H-CVWM-OH) as the compound, how does the IC50 [1, 6] read?
Answer: 320 nM

Question: For `CC(C)=CCC/C(C)=C/CC/C(C)=C/CC/C(C)=C/COP(=O)(O)OP(=O)(O)O` [Geranylgeranyl pyrophosphate], which “Affinity for the prenyl pyrophosphate binding site” value [2] is on record?
Answer: affinity equal to that of farnesyl pyrophosphate

Question: Which IC50 [1, 6] does the source give for `CSCC[C@H](NC(=O)[C@H](Cc1ccccc1)NC(=O)[C@@H](NC(=O)[C@H](CS)NC(=O)[C@H](CS)NC(C)=O)C(C)C)C(=O)O` [N-AcCCVFM] (Ac-CCVFM-OH) here?
Answer: 110 nM

Question: How did the IC50 [1, 6] turn out when `CSCC[C@H](NC(=O)[C@H](Cc1ccccc1)NC(=O)[C@@H](NC(=O)[C@H](CS)NC(C)=O)C(C)C)C(=O)O` [N-AcCVFM] (Ac-CVFM-OH) was run?
Answer: 250 nM

Question: What about the IC50 [3] of the same compound?
Answer: 270 nM

Question: How did the IC50 [1, 6] turn out when `CC[C@H](C)[C@H](NC(=O)[C@@H](NC(=O)[C@H](CS)NC(C)=O)C(C)C)C(=O)N[C@@H](CCSC)C(=O)O` [N-AcCVIM] (Ac-CVIM-OH) was run?
Answer: 150 nM

Question: How did the IC50 [1, 6] turn out when `CSCC[C@H](NC(=O)[C@H](Cc1c[nH]c2ccccc12)NC(=O)[C@@H](NC(=O)[C@H](CS)NC(C)=O)C(C)C)C(=O)O` [N-AcCVWM] (Ac-CVWM-OH) was run?
Answer: 3700 nM

Question: Which IC50 [1, 6] does the source give for `CCCCCCCC(=O)N[C@@H](CS)C(=O)N[C@H](C(=O)N[C@@H](Cc1ccccc1)C(=O)N[C@@H](CCSC)C(=O)O)C(C)C` [N-Octanoyl-CVFM] (Octanoyl-CVFM-OH) here?
Answer: 350 nM

Question: How did the “Concentration that gave half-maximal reaction velocity” value ([1]; substrate saturation, FIG. 2A and 2B) turn out when `CC(C)=CCC/C(C)=C/CC/C(C)=C/COP(=O)(O)OP(=O)(O)O` [[^3 H]farnesyl pyrophosphate, farnesyl pyrophosphate, reference compound] was run?
Answer: approximately 0.5 μM

Question: For Ac-DCVFM [N-AcDCVFM], which IC50 [1, 6] is on record?
Answer: 1900 nM

Question: How did the IC50 [1, 6] turn out when Ac-ECVFM [N-AcECVFM] was run?
Answer: 2400 nM

Question: With Ac-GCVFM [N-AcGCVFM] as the compound, how does the IC50 [1, 6] read?
Answer: 430 nM

Question: With Ac-HCVFM [N-AcHCVFM] as the compound, how does the IC50 [1, 6] read?
Answer: 240 nM

Question: With Ac-KCVFM [N-AcKCVFM] as the compound, how does the IC50 [1, 6] read?
Answer: 300 nM

Question: How did the IC50 [1, 6] turn out when Ac-MCVFM [N-AcMCVFM] was run?
Answer: 1400 nM

Question: Ac-PCVFM [N-AcPCVFM] was tested. Which IC50 [1, 6] did it give?
Answer: 200 nM

Question: With Ac-SCVFM [N-AcSCVFM] as the compound, how does the IC50 [1, 6] read?
Answer: 230 nM

Question: How did the IC50 [1, 6] turn out when KCVFM [KCVFM] was run?
Answer: 1100 nM
